Measurements published in ChEMBL document CHEMBL5528023, “Discovery of a CB2 and 5-HT1A receptor dual agonist for the treatment of depression and anxiety” (Eur J Med Chem, 2024).
Values after ≈ are worked out from the molar mass of the structure shown.

Legend:
[1] = biological target: T1, Cannabinoid receptor 1 (Homo sapiens, UniProt P21554); test: Antagonist activity at human CB1 receptor expressed in CHO cells assessed as inhibition of forskolin-stimulated cAMP formation preincubated with compound for 10 mins followed by forskolin induction and measured after 30 mins by HTRF analysis; type: functional, cell-based
[2] = biological target: T1, Cannabinoid receptor 1; test: Antagonist activity at human CB1 receptor expressed in CHO cells assessed as inhibition of forskolin-stimulated cAMP formation by measuring maximum inhibition preincubated with compound for 10 mins followed by forskolin induction and measured after 30 mins by HTRF analysis relative to control; type: functional, cell-based; conditions: filed as antagonist, time 40.0 min
[3] = biological target: T2, Cannabinoid receptor 2 (Homo sapiens, UniProt P34972); test: Agonist activity at human CB2 receptor expressed in CHO cells assessed as forskolin-stimulated cAMP formation preincubated with compound for 10 mins followed by forskolin induction and measured after 30 mins by HTRF analysis; type: functional, cell-based
[4] = Half life in ICR mouse at 25 mg/kg, po measured upto 8 hrs by LC-MS/MS analysis; type: ADME, organism-based; conditions: in vivo
[5] = Tmax in ICR mouse at 25 mg/kg, po measured upto 8 hrs by LC-MS/MS analysis; type: ADME, organism-based; conditions: in vivo
[6] = AUClast in ICR mouse at 25 mg/kg, po measured upto 8 hrs by LC-MS/MS analysis; type: ADME, organism-based; conditions: in vivo
[7] = biological target: T2, Cannabinoid receptor 2; test: Partial agonist activity at human CB2 receptor expressed in CHO cells assessed as forskolin-stimulated cAMP formation preincubated with compound for 10 mins followed by forskolin induction and measured after 30 mins by HTRF analysis relative to control; type: functional, cell-based; conditions: filed as partial agonist, time 40.0 min
[8] = biological target: T2, Cannabinoid receptor 2; test: Partial agonist activity at human CB2 receptor expressed in CHO cells assessed as forskolin-stimulated cAMP formation preincubated with compound for 10 mins followed by forskolin induction and measured after 30 mins by HTRF analysis; type: functional, cell-based
[9] = Cmax in ICR mouse at 25 mg/kg, po measured upto 8 hrs by LC-MS/MS analysis; type: ADME, organism-based; conditions: in vivo
[10] = tested on: Mus musculus; test: Anxiolytic activity against stress-induced hyperthermia in ip dosed ICR mouse assessed as reduction in basal core rectal temperature measured for 60 mins; type: functional, organism-based; conditions: dose 3-10 mg/kg
[11] = tested on: Mus musculus; test: Anxiolytic activity against stress-induced hyperthermia in ip dosed ICR mouse assessed as reduction in delta temperature measured for 60 mins; type: functional, organism-based; conditions: dose 1-10 mg/kg
[12] = biological target: T3, 5-hydroxytryptamine receptor 1A (Homo sapiens) (UniProt P08908); test: Agonist activity at human 5HT1A receptor expressed in HEK293 cells assessed as forskolin-stimulated cAMP formation preincubated with compound for 10 mins followed by forskolin induction and measured after 30 mins by HTRF analysis relative to control; type: functional, cell-based; conditions: filed as agonist, time 40.0 min
T3 sequence (whole entry): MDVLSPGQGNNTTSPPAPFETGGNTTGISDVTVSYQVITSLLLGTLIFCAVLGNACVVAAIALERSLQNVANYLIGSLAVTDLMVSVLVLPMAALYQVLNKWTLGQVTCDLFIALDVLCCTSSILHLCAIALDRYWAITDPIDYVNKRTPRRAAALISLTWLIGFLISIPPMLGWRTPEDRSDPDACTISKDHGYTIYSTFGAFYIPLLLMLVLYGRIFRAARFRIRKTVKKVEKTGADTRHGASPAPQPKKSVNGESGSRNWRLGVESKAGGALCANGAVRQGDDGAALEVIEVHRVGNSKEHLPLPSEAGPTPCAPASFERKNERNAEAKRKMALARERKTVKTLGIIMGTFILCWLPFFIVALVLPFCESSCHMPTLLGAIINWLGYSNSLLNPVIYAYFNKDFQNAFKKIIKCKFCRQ

[13] = Cmax in ICR mouse brain at 25 mg/kg, po measured upto 8 hrs by LC-MS/MS analysis; type: ADME, organism-based
[14] = Solubility of compound in phosphate buffer at pH 6.8 by HPLC analysis; type: physicochemical
[15] = biological target: T4, 5-hydroxytryptamine receptor 1A (Homo sapiens, UniProt P08908); test: Agonist activity at human 5HT1A receptor expressed in HEK293 cells assessed as forskolin-stimulated cAMP formation preincubated with compound for 10 mins followed by forskolin induction and measured after 30 mins by HTRF analysis; type: functional, cell-based
T4 sequence (P08908 whole entry): T3 sequence (whole entry)

[16] = biological target: T2, Cannabinoid receptor 2; test: Agonist activity at CB2 receptor (unknown origin); type: functional

T2 sequence (P34972 whole entry): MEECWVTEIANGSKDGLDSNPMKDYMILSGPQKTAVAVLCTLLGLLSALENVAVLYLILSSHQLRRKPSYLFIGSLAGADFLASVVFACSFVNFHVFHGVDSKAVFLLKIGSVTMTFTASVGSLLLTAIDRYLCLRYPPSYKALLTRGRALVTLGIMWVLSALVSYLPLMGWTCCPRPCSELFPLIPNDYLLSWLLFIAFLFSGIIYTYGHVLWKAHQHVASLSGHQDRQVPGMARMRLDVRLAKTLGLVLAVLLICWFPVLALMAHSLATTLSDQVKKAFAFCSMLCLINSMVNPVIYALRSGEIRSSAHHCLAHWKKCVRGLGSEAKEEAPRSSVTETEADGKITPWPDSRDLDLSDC
T1 sequence (P21554 whole entry): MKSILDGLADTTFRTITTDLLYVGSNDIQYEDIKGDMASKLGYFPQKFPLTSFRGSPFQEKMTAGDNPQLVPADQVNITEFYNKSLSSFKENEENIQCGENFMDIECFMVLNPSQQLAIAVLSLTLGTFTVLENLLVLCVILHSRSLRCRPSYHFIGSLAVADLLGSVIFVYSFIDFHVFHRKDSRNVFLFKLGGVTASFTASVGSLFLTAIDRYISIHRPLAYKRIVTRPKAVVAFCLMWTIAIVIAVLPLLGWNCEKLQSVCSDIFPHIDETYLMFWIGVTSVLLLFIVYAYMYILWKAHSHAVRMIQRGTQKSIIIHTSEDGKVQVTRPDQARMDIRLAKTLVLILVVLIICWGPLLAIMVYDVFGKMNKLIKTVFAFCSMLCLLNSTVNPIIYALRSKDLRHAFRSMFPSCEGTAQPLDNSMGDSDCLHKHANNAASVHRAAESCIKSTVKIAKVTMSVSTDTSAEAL

| Structure (SMILES) | IC50 [1] | Imax [2] | EC50 [3] | other results |
| --- | --- | --- | --- | --- |
| C=C(C)[C@@H]1CCC(C)=C[C@H]1c1c(O)cc(CCCCC)c(C(=O)NC2CC2)c1O | 2.3 µM | 88.9% | > 0.01 µM |  |
| C=C(C)[C@@H]1CCC(C)=C[C@H]1c1c(O)cc(C2CC2)c(C(=O)NC)c1O | > 10 µM |  | > 10 µM |  |
| C=C(C)[C@@H]1CCC(C)=C[C@H]1c1ccc(C2CC2)c(C(N)=O)c1O | 6.5 µM | 108% |  | half-life [4]: 2.9 h; Tmax [5]: 0.4 h; AUC(0-t) at 8 h [6]: 170 ng·h/mL; Emax [7]: 44.7%; EC50 [8]: 0.56 µM; Cmax [9]: 90.4 ng/mL |
| CN1C(=O)CN=C(c2ccccc2)c2cc(Cl)ccc21 |  |  |  | Activity [10]: Dose-Dependent Effect; Activity [11]: Dose-Dependent Effect |
| C=C(C)[C@@H]1CCC(C)=C[C@H]1c1c(O)cc(C(=O)CCCC)cc1O | 9.9 µM | 82.9% |  | Emax [7]: 75.7%; EC50 [8]: 4.69 µM |
| C=C(C)[C@@H]1CCC(C)=C[C@H]1c1c(O)cc(CCCCC)c(C(=O)NCCCCC)c1O | > 10 µM |  | > 0.01 µM |  |
| C=C(C)[C@@H]1CCC(C)=C[C@H]1c1c(O)cc(CCCCC)cc1O [CANNABIDIOL] |  | 88.3% |  | half-life [4]: 4.3 h; Tmax [5]: 0.7 h; Emax [12]: 64%; AUC(0-t) at 8 h [6]: 289 ng·h/mL; Cmax [13]: 239 ng/g; solubility [14]: 0.04 µg/mL (≈ 0.127 µM); Cmax [9]: 145 ng/mL; EC50 [15]: 4.2 µM |
| C=C(C)[C@@H]1CCC(C)=C[C@H]1c1c(O)cc(C#CC)cc1O | 3.3 µM | 96.7% | > 0.01 µM |  |
| C=C(C)[C@@H]1CCC(C)=C[C@H]1c1c(O)cc(C(C)(C)CCCC)c(C(=O)NC)c1O | 4.4 µM | 104% | > 10 µM |  |
| C=C(C)[C@@H]1CCC(C)=C[C@H]1c1c(O)cc(C2(CCCC)CC2)c(C(=O)NC)c1O | 2.2 µM | 91.1% | > 10 µM |  |
| C=C(C)[C@@H]1CCC(C)=C[C@H]1c1c(O)cc(CCCCC)c(C(N)=O)c1O | 2.7 µM | 86.3% | > 0.01 µM | solubility [14]: 0.6 µg/mL (≈ 1.68 µM) |
| C=C(C)[C@@H]1CCC(C)=C[C@H]1c1c(O)cc(C2CC2)cc1O | 4.4 µM | 94% | > 0.01 µM |  |
| Cc1ccc(CC2CN(C(=O)C3C(C)(C)[C@@H]4CC[C@]3(C)C4)N=C2c2ccc(Cl)c(C)c2)cc1 (some centres not stated) |  |  |  | EC50 [16]: 0.19 µM |
